Values after ≈ are worked out from the molar mass of the structure shown. Read-outs that look alike come from different tables or passages of the source.
Tests used:
[1] = test system: diet-induced obese model of NASH; experiment: NASH mouse model (AMLN diet-induced obese); assay type: in vivo, C57BL/6JRj mice; conditions: oral, 8 wk; dEF3122 twice daily 7 or 20 mg/kg, OCA once daily 7 mg/kg; vs vehicle
Procedure: Fig. 6. Effect of the lead compound in a diet-induced obese model of NASH. Mice fed with a high fat, high fructose, and cholesterol supplemented diet for 38 wk were then treated in the last 8 wk with vehicle, dEF3122, or OCA (obeticholic acid) at indicated concentrations (n = 12 animals per group). (A and B) Histopathological mean score changes between the beginning and end of the treatment for liver portal inflammation (A) and liver portal fibrosis (B) are shown with representative stained liver sections of hematoxylin and eosin (H&E) and picrosirius red stains, respectively. (C–E) (C) Areas of kidney fibrosis at the end of the treatment are shown as % of the total area of the selected fields with representative sections of the kidney stained with picrosirius red. (D) % CD3 and (E) % F4/80 positive areas in kidneys with representative sections of CD3 and F4/80 immunostainings. *P < 0.05, **P < 0.01, and ***P < 0.001 from the T test with a preliminary nonsignificant Shapiro–Wilk test or from Wilcoxon signed–rank test otherwise.
Five-week-old male C57BL/6JRj mice were fed either chow diet or AMLN diet (40% total fat kcal of which 18.5% were trans-fat kcal, 20% fructose, and 2% cholesterol). This diet was maintained for 30 wk prior to study initiation. Three weeks prior to study initiation, liver biopsies were taken, and animals with steatosis grade <2 and fibrosis stage <1 were excluded from the study. Prior to the first administration of the test compound, stratified randomization of mice into treatment groups was performed according to collagen 1a1 (IHC) morphometry from the week 3 biopsies. Each treatment group consisted of 12 mice. For a total of 8 wk, compound dEF3122 was administered orally, twice daily at a concentration of 7 mg/kg or 20 mg/kg. OCA was administered orally, once daily at a concentration of 7 mg/kg. Animals were killed at the end of the treatment, and livers and kidneys were collected. […]
NASH histopathology and immunochemistry
Livers were fixed in 10 % neutral buffered formalin and paraffin-embedded; and sections were stained with H&E and picrosirius red to analyze their morphology. Histopathological analysis was performed by a pathologist blinded to the study. Fibrosis was evaluated by quantification of the picrosirius red positive areas. Inflammation was graded by counting the H&E positive inflammatory foci per field.
Kidneys were fixed in 4 % PFA and paraffin embedded. 4-μm sections were stained with picrosirius red. Images were acquired using a digital slide scanner (Nanozoomer S210 Digital Slide Scanner, Hamamatsu). Renal lesions were blindly examined by a renal pathologist. The extent of interstitial fibrosis was quantified using Image J software (NIH) on Sirius red scanned colored sections. In short, at least 20 random selected fields (original magnification, ×200) across the kidney cortex were analyzed per each kidney section, and the results were expressed as percentages of the total area of the selected fields.
For immunohistochemistry, 4-µm sections of paraffin-embedded kidneys were submitted for appropriate antigen retrieval by high pressure heating in a solution of Tris EDTA Tween or in a citrate solution. Then, sections were then incubated overnight at 4°C with the following antibodies: rabbit monoclonal anti-CD3 (Abcam, 1:100) and rat monoclonal anti- F4/80 (Biorad, 1:100). After washing, sections were incubated with appropriate amplification secondary antibody: biotin-coupled anti-rabbit (GE Healthcare) for CD3 and biotin-coupled anti-rat (Vector Laboratories) for F4/80, and then incubated with streptavidin coupled HRP (Southern). At the end, DAB (DAKO) staining was used to detect HRP. For quantification of CD3+ and F4/80+ renal cells, the degrees of cellular infiltrate were automatically quantified using ImageJ software (NIH) and expressed as a percentage of the surface area of the positive staining per field, in at least 10 random fields perp

[2] = Kinetic solubility; assay type: physicochemical; conditions: PBS pH 7.4 buffer, pH 7.4, aqueous buffer, kinetic from dmso stock
Procedure: 10 mM DMSO Stock solutions of tested compounds were distributed into filtration plate (Multiscreen Durapore 0.45µm) containing PBS pH 7.4 buffer to a final maximum concentration of 130 μM (1.3 % DMSO/buffer). Solutions or suspensions were shaken for 30 min at room temperature. The samples were filtered under vacuum into a collection plate and diluted 50 % with ACN for UV analysis. Quantification was performed against a Reference plate containing the same tested compounds fully solubilized in ACN/PBS buffer 1:1. Reference and Sample plates were analyzed by UPLC/UV-MS using a generic UPLC method. […]

[3] = test system: influenza A H1N1 virus; experiment: microbe, parasite or virus in culture; conditions: H1N1, A549, read-out: IC50 for the inhibition of influenza virus replication
[4] = Plasma protein binding by equilibrium dialysis, murine; assay type: in vitro ADME; conditions: mouse, read-out: PPB (% bound)
Procedure: The free and bound fractions of the tested compounds in mouse and human plasma were determined by equilibrium dialysis using a 96-well Teflon dialysis unit (HTDialysis plate complete unit, HT Dialysis, USA). The HTDialysis plate complete unit consists of a 96-well plate with wells vertically bisected by a semipermeable membrane (membranes strips 12 to 14 kDa) creating two chambers. A 125 μL aliquot of plasma containing tested compound at 10 μM was placed on one side and 125 μL of Dulbecco‘s phosphate buffered saline (D-PBS) on the other. The plate was incubated at 37 °C for 6 hr under gentle agitation. Then, samples from both plasma and buffer compartment were analyzed by a LC-MS/MS method to measure the free fraction and the bound fraction to the plasma proteins. […]

[5] = Microsomal stability, human liver microsomes; assay type: in vitro ADME; conditions: both sexes, pH 7.4, read-out: CLint hLM
Procedure: (§1) Tested compounds (1 μM) were incubated with pooled human liver microsomes (Xenotech; pooled male and female) and pooled mouse liver microsomes (Xenotech; male CD-1 mice).
(§2) Microsomes (final protein concentrations of 0.25 and 0.5 mg/ml, 0.1 M phosphate buffer pH 7.4) containing tested compound (final substrate concentration 1 μM; final DMSO concentration 0.25 %) were preincubated at 37 °C prior to the addition of NADPH (final concentration 1 mM) to initiate the reaction. The final incubation volume was 200 μl. 3 species-specific control compounds were included with each species. At 5 time points (0, 5, 10, 20, and 40 min), reactions were stopped by transferring 50 μl of the incubation mixture into 0.5 μM carbamazepine in acetonitrile. Tested compound concentrations were analyzed by LC-MS/MS and the resulting data were used to determine the half-life and intrinsic clearance of the compound in each

[6] = Microsomal stability, mouse liver microsomes; assay type: in vitro ADME; conditions: male, CD-1, mouse, pH 7.4; murine liver microsomes; read-out: CLint mLM
Procedure: as §1, §2

[7] = test system: HIV1 strain NL4-3; assay type: cell-based; conditions: normalized mean of HIV1 replication readout
[8] = test system: EBV; conditions: normalized mean of EBV replication readout
[9] = test system: influenza A H1N1 virus; conditions: 48 hr post-treatment, A549
[10] = test system: HCV replicon; assay type: cell-based; conditions: normalized mean of HCV replicon readout
[11] = test system: F. novicida (strain U112); assay type: cell-based

Row | Compound | HIV1 Norm MEAN [7] | EBV Norm MEAN [8] | Neuraminidase activity normalized to vehicle ([9]; 200 µM peptide) | Neuraminidase activity normalized to vehicle ([9]; 0,823 µM peptide) | Neuraminidase activity normalized to vehicle ([9]; 22,2 µM peptide) | Neuraminidase activity normalized to vehicle ([9]; 2,4691 µM peptide) | Neuraminidase activity normalized to vehicle ([9]; 7,4074 µM peptide) | Neuraminidase activity normalized to vehicle ([9]; 66,6667 µM peptide) | HCV Norm MEAN [10] | Francisella novicida Norm AUC [11] | further results
1 | CC[C@H]1[C@@H](O)[C@@H]2[C@H](CC[C@]3(C)[C@@H]([C@H](C)CCC(=O)O)CC[C@@H]23)[C@@]2(C)CC[C@@H](O)C[C@@H]12 [OCA, obeticholic acid, reference compound] |  |  |  |  |  |  |  |  |  |  | liver portal fibrosis [1]: significantly reduced portal fibrosis; liver portal inflammation [1]: failed to alleviate portal inflammation
2 | CCOC(=O)c1c(NC(=O)C2CCCCC2C(=O)O)sc2c1CCC(C(C)(C)C)C2 (stereo not drawn) [dEF2586] |  |  |  |  |  |  |  |  |  |  | solubility kinetic at 30 min [2]: 173 µM (≈ 75.4 µg/mL); IC50 [3]: 3000 nM
3 | COc1ccc(C(=O)Nc2sc3c(c2C(=O)O)CCC(C(C)(C)C)C3)cc1 (stereo not drawn) [dEF2665] |  |  |  |  |  |  |  |  |  |  | solubility kinetic at 30 min [2]: < 5 µM; fraction unbound at 6 h, 10 µM [4]: 0.001; IC50 [3]: 150 nM; microsomal CLint at 1 µM [5]: 38 µL/min/mg; microsomal CLint at 1 µM [6]: 50 µL/min/mg
4 | TYGTC [CPEP97] | 0.8497 | 1.147 | 0,8478 | 0,83 | 0,836 | 0,6842 | 0,8009 | 0,8711 | 0.1345 | 0.4338 | 
5 | WGCSGKLICTTTVPW [CPEP84] |  |  | 0,0819 | 0,9093 | 0,9299 | 0,9765 | 0,9455 | 0,3888 |  | 1.224 | HIV1 Norm MEAN ([7]; peptide screen): 0.7328; EBV Norm MEAN ([8]; peptide screen): 0.6808; HCV Norm MEAN ([10]; peptide screen): 0.9118
6 | WKSKKTP [CPEP78] | 1.618 | 1.01 | 0,663 | 0,9859 | 0,8841 | 0,8283 | 0,8644 | 0,9037 | 0.1248 | 0.7597 | 
7 | WRHRAR [CPEP113] | 0.4362 | 1.761 | 0,9723 | 0,965 | 0,979 | 0,9338 | 0,9116 | 1,0465 | 0.1192 | 0.358 | inhibition of PI incorporation in F. novicida infected BMDMs (in words) [11]: most
8 | YASIL [CPEP21] | 2.264 | 1.459 | 0,9829 | 0,8221 | 0,8963 | 0,8753 | 0,7869 | 1,0057 | 0.1905 | 0.5259 | 
9 | YFADLLI [CPEP50] | 1.681 | 1.15 | 0,2471 | 0,883 | 0,8095 | 0,771 | 0,9007 | 0,7183 | 0.09464 | 0.9176 | 
10 | YLTDM [CPEP154] | 1.461 | 1.807 | 1,0928 | 1,0316 | 1,0253 | 0,9855 | 1,0107 | 1,0399 | 0.1792 | 0.5909 | 
11 | YRHHY [CPEP48] | 1.395 | 1.742 | 1,01 | 0,9611 | 1,0228 | 0,8941 | 0,9555 | 1,0901 | 0.151 | 0.6002 | 

— article PMC10835127, “Viruses traverse the human proteome through peptide interfaces that can be biomimetically leveraged for drug discovery” (Proceedings of the National Academy of Sciences of the …, 2024)
